Reference: PMC9822021, “Biological Activity of Amidino-Substituted Imidazo [4,5-b]pyridines” (Molecules, 2022)

Assays:
[1] = system: Influenza H1N1 (A/Ned/378/05); assay: Antiviral CPE reduction assay; type: cell-based; conditions: Influenza A virus, MDCK cells
[2] = system: Influenza H3N2 (A/HK/7/87); assay: Antiviral CPE reduction assay; type: cell-based; conditions: Influenza A virus, MDCK cells
[3] = system: Influenza B (B/Ned/537/05); assay: Antiviral CPE reduction assay; type: cell-based; conditions: Influenza B virus, MDCK cells
[4] = Cytotoxicity in virus host cell line, MTS assay; conditions: dog
[5] = system: HCT-116 colorectal carcinoma cells; assay: In vitro antiproliferative activity, MTS proliferation assay; type: cell-based; conditions: Homo sapiens, 72 h
[6] = system: K-562 chronic myeloid leukemia cells; assay: as above; type: cell-based; conditions: Homo sapiens, K562, 72 h
[7] = system: LN-229 glioblastoma cells; assay: as above; type: cell-based; conditions: Homo sapiens, 72 h
[8] = system: NCI-H460 lung carcinoma cells; assay: as above; type: cell-based; conditions: Homo sapiens, 72 h
[9] = system: Capan-1 pancreatic adenocarcinoma cells; assay: as above; type: cell-based; conditions: Homo sapiens, 72 h
In short: (§1)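 Cells grown in media with 10% FBS were incubated 72 h with compounds, then viability was read with MTS reagent. Compounds were tested in two independent experiments.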

[10] = system: DND-41 acute lymphoblastic leukemia cells; assay: as above; type: cell-based; conditions: Homo sapiens, DND41, 72 h
In short: as §1

[11] = system: HL-60 acute myeloid leukemia cells; assay: as above; type: cell-based; conditions: Homo sapiens, 72 h
In short: as §1

[12] = system: Z-138 non-Hodgkin lymphoma cells; assay: as above; type: cell-based, human
In short: (§2)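 MTT lines (SW620, PC3, HeLa): 1 × 10^4–3 × 10^4 cells/mL, 10^−8–10^−4 M in 10-fold steps, 72 h, A570, IC50 from OD, quadruplicate, n≥2. Z-138: MTS after 72 h, A490, IC50, two independent runs.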

[13] = system: HeLa cervical carcinoma cells; assay: In vitro antiproliferative activity, MTT assay; type: cell-based; conditions: Homo sapiens, 72 h
In short: as §2

[14] = system: PC3 prostate carcinoma cells; assay: In vitro antiproliferative activity, MTT assay; type: cell-based; conditions: Homo sapiens, 72 h
In short: as §2

[15] = system: SW620 colon carcinoma cells; assay: In vitro antiproliferative activity, MTT assay; type: cell-based; conditions: Homo sapiens, SW-620, 72 h
In short: as §2

E. coli ATCC 25922 = assay: Antibacterial activity in vitro, broth microdilution; type: cell-based; conditions: Escherichia coli, ATCC25922; broth microdilution (CLSI), 16–24 h at 37 °C
In short: (§3)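 CLSI broth microdilution in Ca-adjusted MH media; inoculum from direct colony suspension at 0.5 McFarland, further diluted 100×.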

S. Pneumoniae ATCC 49619 = assay: as above; type: cell-based; conditions: Streptococcus pneumoniae, ATCC49619; broth microdilution (CLSI), 16–24 h at 37 °C
In short: as §3

S. aureus ATCC 29213 = assay: as above; type: cell-based; conditions: Staphylococcus aureus, ATCC29213; broth microdilution (CLSI), 16–24 h at 37 °C
In short: as §3

E. coli Efflux Del = assay: microbe, parasite or virus in culture; type: cell-based; conditions: Escherichia coli, read-out: MIC E. coli Efflux Del
In short: as §3

[16] = system: panel of cancer cell lines (LN-229, Capan-1, HCT-116, NCI-H460, DND-41, HL-60, K-562, Z-138); assay: In vitro antiproliferative activity, whole panel of Table 1 (MTS); type: cell-based; conditions: Homo sapiens, range over eight cell lines, 72 h, read-out: IC50 values ranging over the panel of cancer cell lines of Table 1
Excerpt: (§4) Human cancer cell lines used in this manuscript, namely Capan-1, HCT-116, NCI-H460, LN-229, HL-60, K-562, Z-138, SW620, PC3 and HeLa, were acquired from the American Type Culture Collection (ATCC, Manassas, VA, USA), while the DND-41 cell line was purchased from the Deutsche Sammlung von Mikroorganismen und Zellkulturen (DSMZ Leibniz-Institut, Germany). Culture media were purchased from Gibco Life Technologies, USA, and supplemented with 10% fetal bovine serum (HyClone, GE Healthcare Life Sciences, Chicago, IL, USA), except for the media for SW620, PC3 and HeLa cells, which were purchased from Sigma.
(§5) Adherent cell lines LN-229, HCT-116, NCI-H460 and Capan-1 cells were seeded at a density between 500 and 1500 cells per well in 384-well tissue culture plates (Greiner). […]. Cells were incubated for 72 h with compounds and were then analyzed using the CellTiter 96® AQueous One Solution Cell Proliferation Assay (MTS) reagent (Promega) according to the manufacturer’s instructions. Absorbance of the samples was measured at 490 nm using a SpectraMax Plus 384 (Molecular Devices), and OD values were used to calculate the 50% inhibitory concentration (IC50). Compounds were tested in two independent experiments. […] After 72 h of incubation, the cell growth rate was evaluated using the MTT assay as described previously. […]

in vitro [17] = conditions: dog
in vitro [18] = conditions: human
in vitro [19] = conditions: human; remark: listed apart in the source
in vitro [20] = assay: in vitro
HCoV 229E = assay: Antiviral CPE reduction assay; type: cell-based; conditions: Human coronavirus 229E, HEL 299 cells
HCoV OC43 = assay: Antiviral CPE reduction assay; type: cell-based, human coronavirus OC43; conditions: Betacoronavirus 1, OC43, HEL 299 cells
HCoV NL63 = assay: Antiviral CPE reduction assay; type: cell-based; conditions: Human coronavirus NL63, Huh-7, Huh7 cells
RSV A Long = assay: Antiviral CPE reduction assay; type: cell-based, respiratory syncytial virus A; conditions: human respiratory syncytial virus; CPE reduction, HEL 299 cells
HSV-1 KOS = assay: Antiviral CPE reduction assay; type: cell-based, herpes simplex virus-1; conditions: Human alphaherpesvirus 1
YFV 17D = assay: microbe, parasite or virus in culture; type: cell-based; conditions: Yellow fever virus, Huh-7, read-out: EC50 YFV 17D Huh7
Zika mr766 = assay: Antiviral CPE reduction assay; type: cell-based; conditions: Zika virus, Huh-7, Huh7 cells
Sindbis = assay: Antiviral CPE reduction assay; type: cell-based; conditions: Sindbis virus, Huh-7, Huh7 cells
[21] = system: SW620, HeLa and PC3 cancer cell lines; assay: In vitro antiproliferative activity, all three selected cell lines (MTT); type: cell-based; conditions: Homo sapiens, range over three cell lines, 72 h
Excerpt: as §4, §5

SMILES | EC50 [1] | EC50 [2] | EC50 [3] | IC50 [5] | IC50 [6] | IC50 [7] | IC50 [8] | IC50 [9] | IC50 [10] | IC50 [11] | IC50 ([12]; Homo sapiens, Z-138, 72 h) | IC50 [13] | IC50 [14] | IC50 [15] | MIC (E. coli ATCC 25922) | MIC (S. Pneumoniae ATCC 49619) | MIC (S. aureus ATCC 29213) | MIC (E. coli Efflux Del) | melting point | CC50 (in vitro [17]) | also measured
CC(N)C12CC3CC(CC(C3)C1)C2 (centres unmarked) [Rimantadine, rimantadine, reference compound] | 4.4 ± 4.2 µM | 0.05 ± 0.05 µM | > 100 µM |  |  |  |  |  |  |  |  |  |  |  |  |  |  |  |  |  | CC50 [4]: > 100 µM
Brc1cnc2nc(-c3ccc(C4=NCCN4)cc3)[nH]c2c1.Cl [Compound 14, 6-Bromo-2-(4-(4,5-dihydro-1H-imidazol-2-yl)phenyl)-1H-imidazo[4,5-b]pyridine Hydrochloride] |  |  |  | 13.6 ± 2.8 µM | 49.7 ± 3.1 µM | 8 ± 1.8 µM | 13 ± 7.6 µM | 9.4 ± 0.4 µM | 10.8 ± 0.4 µM | 9.5 ± 1.3 µM | 8.4 µM | 4.3 ± 2.6 µM | 1.5 ± 0.5 µM | 0.7 ± 0.3 µM | > 64 µM | > 64 µM | > 64 µM | 32 µM | > 300 °C | 33.9 ± 0.1 µM | IC50 ([12]; 72 h): 8.5 ± 2 µM; IC50 [16]: 8 to 49.7 µM
CC(C)NC(=N)c1ccc(-c2nc3ncccc3[nH]2)cc1.Cl [Compound 13, 4-(1H-Imidazo[4,5-b]pyridin-2-yl)-N-isopropylbenzimidamide Hydrochloride] |  |  |  | > 100 µM | > 100 µM | > 100 µM | > 100 µM | > 100 µM | > 100 µM | > 100 µM | > 100 µM | > 100 µM | > 100 µM | > 100 µM | > 64 µM | > 64 µM | > 64 µM | > 64 µM | 293 to 295 °C | > 100 µM | CC50 (in vitro [18]): 81.1 ± 26.8 µM; CC50 (in vitro [19]): > 100 µM; CC50 (in vitro [20]): > 30 µM
N#Cc1ccc(-c2nc3ncc(Br)cc3[nH]2)cc1 [Compound 8, 4-(6-Bromo-1H-imidazo[4,5-b]pyridin-2-yl)benzonitrile] | 72.4 ± 8 µM | 35.9 ± 12.4 µM | 56.7 ± 10.2 µM | > 100 µM | > 100 µM | > 100 µM | > 100 µM | > 100 µM | > 100 µM | > 100 µM | > 100 µM | 1.8 ± 0.02 µM | 3.2 ± 0.7 µM | 2 ± 0.2 µM | > 64 µM | > 64 µM | > 64 µM | > 64 µM | > 300 °C | > 100 µM | EC50 (HCoV 229E): > 100 µM; EC50 (HCoV OC43): > 100 µM; EC50 (HCoV NL63): > 100 µM; EC50 (RSV A Long): > 100 µM; EC50 (HSV-1 KOS): > 100 µM; EC50 (YFV 17D): > 100 µM; EC50 (Zika mr766): > 100 µM; EC50 (Sindbis): > 100 µM; IC50 [21]: 1.8 to 3.2 µM; CC50 (in vitro [18]): > 100 µM; CC50 (in vitro [19]): > 100 µM
